From US20130109682A1, “CYCLIC ETHER COMPOUNDS USEFUL AS KINASE INHIBITORS” (NOVARTIS AG, priority 2010, published 2013)

Legend:
PIM1 = PIM1 (Homo sapiens, UniProt P11309); assay: KinaseGlo Pim1 ATP depletion assay; format: biochemical
Outline: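 IC50 is derived from residual ATP measured by KinaseGlo Plus luminescence once about half the ATP was consumed. Final conditions were 20 μM ATP, 40 μM BAD peptide and 2.5 nM kinase in HEPES pH 7.5 buffer with MgCl2, DTT and BSA, plus 2.5% DMSO. Compound and enzyme were premixed 15 min before ATP addition.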

PIM2 = PIM2 (Homo sapiens, UniProt Q9P1W9); assay: KinaseGlo Pim2 ATP depletion assay; format: biochemical
Outline: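 Compound sat 15 min with enzyme and BAD peptide before ATP was added; final levels 5 nM PIM2, 10 μM peptide, 4 μM ATP, 2.5% DMSO, pH 7.5 HEPES buffer with MgCl2, DTT, BSA. Stopped near 50% ATP consumption; remaining ATP measured by luciferase luminescence.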

PIM3 = PIM3 (Homo sapiens, UniProt Q86V86); assay: KinaseGlo Pim3 ATP depletion assay; format: biochemical
Outline: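 Residual ATP was detected by luciferase luminescence once about half had been consumed. The reaction contained 5 nM enzyme, 100 μM BAD peptide (RSRHSSYPAGT) and 40 μM ATP in 50 mM HEPES pH 7.5, 5 mM MgCl2, 1 mM DTT and 0.05% BSA with 2.5% DMSO. Compound and enzyme/peptide were premixed 15 min before ATP.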

GSK3β = GSK3β (Homo sapiens, UniProt P49841); assay: GSK3β ATP depletion assay; format: biochemical; conditions: read-out: GSK3b IC50
Outline: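 Kinase activity is read as ATP consumption: luciferase luminescence reports the ATP remaining once roughly half of the 2 μM ATP is used. Reaction mix: 5 nM GSK3β, 10 μM b-CREB peptide, 50 mM Tris pH 7.5, 15 mM MgCl2, 1 mM DTT, 0.1% BSA, 2.5% DMSO. Enzyme and peptide are preincubated 15 min before ATP is added.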

[1] = system: KMS11 (human myeloma cell line); assay: Cell proliferation assay (CellTiter-Glo), KMS11; format: cell-based; conditions: Homo sapiens, KMS-11; KMS11-Luc cells
Outline: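 EC50 derived from CellTiter-Glo luminescence after 3-day exposure at 37° C. Compound was diluted to 2× in medium and added to an equal volume of cells. KMS11 myeloma cells were plated on assay day at 2000/well in IMDM with 10% FBS and sodium pyruvate.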

Chain of GSK3β (P49841 whole entry, species assumed): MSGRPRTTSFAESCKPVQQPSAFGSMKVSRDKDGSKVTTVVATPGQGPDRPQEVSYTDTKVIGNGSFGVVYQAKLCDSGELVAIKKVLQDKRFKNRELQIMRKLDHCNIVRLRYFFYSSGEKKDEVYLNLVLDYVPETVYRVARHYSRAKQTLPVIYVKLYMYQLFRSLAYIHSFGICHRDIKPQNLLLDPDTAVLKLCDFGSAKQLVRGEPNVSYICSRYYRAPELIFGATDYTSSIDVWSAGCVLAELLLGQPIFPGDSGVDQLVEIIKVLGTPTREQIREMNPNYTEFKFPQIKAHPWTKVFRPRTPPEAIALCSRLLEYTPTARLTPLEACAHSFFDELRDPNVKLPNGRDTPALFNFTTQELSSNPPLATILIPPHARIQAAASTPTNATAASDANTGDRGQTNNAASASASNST
Chain of PIM1 (P11309 whole entry): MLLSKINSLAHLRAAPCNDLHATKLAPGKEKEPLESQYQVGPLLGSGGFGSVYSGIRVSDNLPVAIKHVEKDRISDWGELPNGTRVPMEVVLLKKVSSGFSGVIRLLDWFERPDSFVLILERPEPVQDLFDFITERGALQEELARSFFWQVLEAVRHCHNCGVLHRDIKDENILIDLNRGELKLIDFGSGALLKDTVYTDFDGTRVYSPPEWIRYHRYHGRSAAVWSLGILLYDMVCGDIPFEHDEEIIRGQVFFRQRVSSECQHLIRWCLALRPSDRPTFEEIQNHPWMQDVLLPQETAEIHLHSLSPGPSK
Chain of PIM2 (Q9P1W9 whole entry): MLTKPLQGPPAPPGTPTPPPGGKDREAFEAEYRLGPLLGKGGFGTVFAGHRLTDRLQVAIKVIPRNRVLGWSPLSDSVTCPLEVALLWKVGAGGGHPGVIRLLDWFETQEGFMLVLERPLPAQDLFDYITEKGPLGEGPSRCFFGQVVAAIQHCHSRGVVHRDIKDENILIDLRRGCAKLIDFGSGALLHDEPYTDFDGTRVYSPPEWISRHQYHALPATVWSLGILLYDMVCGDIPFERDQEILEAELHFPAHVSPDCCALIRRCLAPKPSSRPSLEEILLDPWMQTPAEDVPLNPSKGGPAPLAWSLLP

| Compound | IC50 (PIM1) [nM] | IC50 (PIM2) [nM] | IC50 (PIM3) [nM] | IC50 (GSK3β) [nM] | EC50 [1] [nM] |
| --- | --- | --- | --- | --- | --- |
| O=C(Nc1cnccc1[C@@H]1C[C@H](O)[C@]2(O)CCC[C@@H]2O1)c1ccc(F)c(-c2c(F)cccc2F)n1 [Example 188, 6-(2,6-difluorophenyl)-N-(4-((2S,4S,4aR,7aS)-4,4a-dihydroxyoctahydrocyclopenta[b]pyran-2-yl)pyridin-3-yl)-5-fluoropicolinamide] | 34.5 | 318 | 144 | 731 | > 10000 |
| O=C(Nc1cnccc1[C@H]1C[C@@H](O)[C@@]2(O)CCCC[C@H]2O1)c1ccnn(-c2ccccc2F)c1=O [Example 190, N-(4-((2R,4R,4aS,8aR)-4,4a-dihydroxyoctahydro-2H-chromen-2-yl)pyridin-3-yl)-2-(2-fluorophenyl)-3-oxo-2,3-dihydropyridazine-4-carboxamide] | 33.9 | 494 | 35.5 | 38.5 | > 10000 |
| O=C(Nc1cnccc1[C@@H]1C[C@H](O)[C@]2(O)CCC[C@@H]2O1)c1cccn(-c2ccccc2)c1=O [Example 192, N-(4-((2S,4S,4aR,7aS)-4,4a-dihydroxyoctahydrocyclopenta[b]pyran-2-yl)pyridin-3-yl)-2-oxo-1-phenyl-1,2-dihydropyridine-3-carboxamide] | > 25000 | > 25000 | > 25000 | > 25000 | > 10000 |
| CC[C@H]1O[C@@H](c2ccncc2NC(=O)c2cccn(-c3ccccc3)c2=O)C[C@@H](O)[C@@H]1O [Example 193, N-(4-((2R,4R,5S,6R)-6-ethyl-4,5-dihydroxytetrahydro-2H-pyran-2-yl)pyridin-3-yl)-2-oxo-1-phenyl-1,2-dihydropyridine-3-carboxamide] | 5850 | > 25000 | 7570 | > 25000 | > 10000 |
| CC[C@H]1O[C@@H](c2ccncc2NC(=O)c2c[nH]cc(-c3ccccc3F)c2=O)C[C@@H](O)[C@@H]1O [Example 202, N-(4-((2R,4R,5S,6R)-6-ethyl-4,5-dihydroxytetrahydro-2H-pyran-2-yl)pyridin-3-yl)-5-(2-fluorophenyl)-4-oxo-1,4-dihydropyridine-3-carboxamide] | 754 | 6910 | 1100 | 4400 | > 10000 |
| Nc1cnc(-c2c(F)cccc2F)nc1C(=O)Nc1cnccc1[C@@H]1C[C@H](O)[C@@H](O)[C@H](C2CC2)O1 [Example 205, 5-amino-N-(4-((2S,4S,5R,6S)-6-cyclopropyl-4,5-dihydroxytetrahydro-2H-pyran-2-yl)pyridin-3-yl)-2-(2,6-difluorophenyl)pyrimidine-4-carboxamide] | 37.3 | 45.4 | 69.7 | 1870 | > 10000 |
| O=C(Nc1cnccc1[C@@H]1C[C@H](O)[C@@H](O)[C@H](C2CC2)O1)c1cccc(-c2c(F)cccc2F)n1 [Example 206, N-(4-((2S,4S,5R,6S)-6-cyclopropyl-4,5-dihydroxytetrahydro-2H-pyran-2-yl)pyridin-3-yl)-6-(2,6-difluorophenyl)picolinamide] | 19.9 | 33.8 | 20.2 | 1920 | > 10000 |
| O=C(Nc1cnccc1[C@H]1C[C@@H](O)[C@H](O)[C@@H](C2CC2)O1)c1ccc(F)c(-c2c(F)cccc2F)n1 [Example 211, N-(4-((2R,4R,5S,6R)-6-cyclopropyl-4,5-dihydroxytetrahydro-2H-pyran-2-yl)pyridin-3-yl)-6-(2,6-difluorophenyl)-5-fluoropicolinamide] | 1 | 3.1 | 2.2 | 636 | 2700 |
| N[C@H]1C[C@@H](c2ccncc2NC(=O)c2ccc(F)c(-c3c(F)cccc3F)n2)O[C@H]2CCC[C@]21O [Example 212, N-(4-((2S,4S,4aR,7aS)-4-amino-4a-hydroxyoctahydrocyclopenta[b]pyran-2-yl)pyridin-3-yl)-6-(2,6-difluorophenyl)-5-fluoropicolinamide] | 17.9 | 508 | 155 | 11500 | 3360 |

The remaining lines, values ahead:

| IC50 (PIM1) [nM] | IC50 (PIM2) [nM] | IC50 (PIM3) [nM] | IC50 (GSK3β) [nM] | EC50 [1] [nM] | Compound |
| --- | --- | --- | --- | --- | --- |
| 1780 | > 25000 | 2370 | 1080 | > 10000 | O=C(Nc1cnccc1[C@@H]1C[C@H](O)[C@]2(O)CCCC[C@@H]2O1)c1ccnn(-c2ccccc2F)c1=O [Example 191, N-(4-((2S,4S,4aR,8aS)-4,4a-dihydroxyoctahydro-2H-chromen-2-yl)pyridin-3-yl)-2-(2-fluorophenyl)-3-oxo-2,3-dihydropyridazine-4-carboxamide] |
| 2210 | > 25000 | 2850 | 13300 | > 10000 | O=C(Nc1cnccc1[C@H]1C[C@@H](O)[C@@]2(O)CCC[C@H]2O1)c1cccn(-c2ccccc2)c1=O [Example 194, N-(4-((2R,4R,4aS,7aR)-4,4a-dihydroxyoctahydrocyclopenta[b]pyran-2-yl)pyridin-3-yl)-2-oxo-1-phenyl-1,2-dihydropyridine-3-carboxamide] |
| 2.6 | 53.6 | 19.2 | 24 | > 10000 | O=C1CC[C@H]2O[C@@H](c3ccncc3NC(=O)c3ccc(F)c(-c4c(F)cccc4F)n3)C[C@@H](O)[C@H]2N1 [Example 198, 6-(2,6-difluorophenyl)-5-fluoro-N-(4-((2R,4R,4aR,8aR)-4-hydroxy-6-oxooctahydro-2H-pyrano[3,2-b]pyridin-2-yl)pyridin-3-yl)picolinamide] |
| 7.8 | 46.7 | 33.9 | 1200 | > 10000 | CC[C@H]1O[C@@H](c2ccncc2NC(=O)c2ccc(F)c(-c3c(F)cccc3F)n2)C[C@@H](O)[C@H]1C#N [Example 200, N-(4-((2R,4R,5R,6R)-5-cyano-6-ethyl-4-hydroxytetrahydro-2H-pyran-2-yl)pyridin-3-yl)-6-(2,6-difluorophenyl)-5-fluoropicolinamide] |
| 149 | 3210 | 132 | 383 | > 10000 | O=C(Nc1cnccc1[C@H]1C[C@@H](O)[C@@]2(O)CCC[C@H]2O1)c1ccnn(-c2ccccc2F)c1=O [Example 201, N-(4-((2R,4R,4aS,7aR)-4,4a-dihydroxyoctahydrocyclopenta[b]pyran-2-yl)pyridin-3-yl)-2-(2-fluorophenyl)-3-oxo-2,3-dihydropyridazine-4-carboxamide] |
| 6610 | > 250000 | 23800 | 543 | > 10000 | O=C(Nc1cnccc1[C@@H]1C[C@H](O)[C@]2(O)CCC[C@@H]2O1)c1ccnn(-c2ccccc2F)c1=O [Example 203, N-(4-((2S,4S,4aR,7aS)-4,4a-dihydroxyoctahydrocyclopenta[b]pyran-2-yl)pyridin-3-yl)-2-(2-fluorophenyl)-3-oxo-2,3-dihydropyridazine-4-carboxamide] |
| 0.5 | 2.8 | 2 | 46.2 | 5310 | O=C(Nc1cnccc1[C@H]1C[C@@H](O)[C@@]2(O)CCC[C@H]2O1)c1ccc(F)c(-c2c(F)cccc2F)n1 [Example 204, 6-(2,6-difluorophenyl)-N-(4-((2R,4R,4aS,7aR)-4,4a-dihydroxyoctahydrocyclopenta[b]pyran-2-yl)pyridin-3-yl)-5-fluoropicolinamide] |
| 6.3 | 6 | 8.5 | 572 | 6450 | Nc1cnc(-c2c(F)cccc2F)nc1C(=O)Nc1cnccc1[C@H]1C[C@@H](O)[C@H](O)[C@@H](C2CC2)O1 [Example 207, 5-amino-N-(4-((2R,4R,5S,6R)-6-cyclopropyl-4,5-dihydroxytetrahydro-2H-pyran-2-yl)pyridin-3-yl)-2-(2,6-difluorophenyl)pyrimidine-4-carboxamide] |
| 4.6 | 8.8 | 6.6 | 796 | > 10000 | O=C(Nc1cnccc1[C@H]1C[C@@H](O)[C@H](O)[C@@H](C2CC2)O1)c1cccc(-c2c(F)cccc2F)n1 [Example 208, N-(4-((2R,4R,5S,6R)-6-cyclopropyl-4,5-dihydroxytetrahydro-2H-pyran-2-yl)pyridin-3-yl)-6-(2,6-difluorophenyl)picolinamide] |
| 3.2 | 7.9 | 4.2 | 1060 | 9500 | O=C(Nc1cnccc1[C@@H]1C[C@H](O)[C@@H](O)[C@H](C2CC2)O1)c1ccc(F)c(-c2c(F)cccc2F)n1 [Example 209, N-(4-((2S,4S,5R,6S)-6-cyclopropyl-4,5-dihydroxytetrahydro-2H-pyran-2-yl)pyridin-3-yl)-6-(2,6-difluorophenyl)-5-fluoropicolinamide] |
